# Patent US7795378B2, “Peptide compositions for treatment of sexual dysfunction” (Palatin Technologies, Inc., priority 2002, dated 2010)
# Where a SMILES comes first, the peptide text is derived from it. [ ]: non-standard residue; d: D form. The star is where a group is joined. dPhe(4-Cl) = N[C@H](Cc1ccc(Cl)cc1)C(=O)O; Ahp = NCCCCCCC(=O)O; Bn = c1ccc(C*)cc1
# Tests used:
# hMC4-R = biological target: T1, hMC4-R (Homo sapiens, UniProt P32245); assay: Competitive inhibition binding assay with 125I-NDP-MSH, MC4 receptor; settings: 10 μM peptide, 0 assigned when raw inhibition between −10% and 10%, read-out: % Inhibition at 10 μM concentration at MC4-Receptor
# T1 construct: expressed in transfected cells
# T1 sequence (P32245 whole entry): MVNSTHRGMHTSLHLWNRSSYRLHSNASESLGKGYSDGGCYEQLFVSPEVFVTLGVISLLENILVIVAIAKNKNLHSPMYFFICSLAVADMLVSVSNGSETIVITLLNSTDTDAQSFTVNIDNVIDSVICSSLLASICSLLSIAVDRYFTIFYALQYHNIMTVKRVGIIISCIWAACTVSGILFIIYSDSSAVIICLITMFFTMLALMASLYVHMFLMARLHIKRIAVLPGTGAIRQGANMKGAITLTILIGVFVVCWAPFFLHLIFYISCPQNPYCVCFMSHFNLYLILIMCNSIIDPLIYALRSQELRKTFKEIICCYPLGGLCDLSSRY
# Experimental: (§1) Competitive inhibition binding assay was conducted using membranes prepared from hMC3-R, hMC4-R, hMC5-R, and B-16 mouse melanoma cells (containing MC1-R) using 0.4 nM ^125I-NDP-MSH (0.2 nM for MCL-R) (New England Nuclear, Boston, Mass., USA) in 50 mM HEPES buffer containing 1 mM MgCl2, 2 mM CaCl2, and 5 mM KCl, at pH 7.2. The assay tube also contained a chosen concentration of the peptides of this invention, for determining inhibition of the binding of ^125I-NDP-MSH to its receptor. Non-specific binding was measured by complete inhibition of binding of ^125I-NDP-MSH in the assay in the presence of 1 μM α-MSH. Incubation was for 90 minutes at 37° C., after which the assay mixture was filtered and the membranes washed three times with ice cold buffer. The filter was dried and counted in a gamma counter for remaining radioactivity bound to the membranes. 100% specific binding was defined as the difference in radioactivity (cpm) bound to cell membranes in the absence and presence of 1 μM α-MSH. The cpm obtained in the presence of peptides of this invention were normalized with respect to 100% specific binding to determine the percent inhibition of ^125I-NDP-MSH binding. Each assay was conducted in triplicate.
# (§2) The binding of the peptides of Examples 1 to 13, inclusive, to melanocortin receptors was evaluated, with results shown on Table 1. Relative binding was determined by competitive inhibition using an α-MSH analog, iodinated NDP-MSH. B16-Fl mouse melanoma cells were used as the source of MC1 receptors and HEK 293 cells, transfected with human melanocortin receptor sequences, were used as the source of MC3, MC4 and MC5 receptors. A standard competitive binding assay protocol as described above was followed, using ^125I-NDP-MSH as the radioligand. A “0” percent inhibition was assigned when the raw percent inhibition, as an average of at least triplicate measures, was between −10% and 10%; in the majority of instances, the raw percent inhibition was between −10% and 0% inhibition.
# male rats = assay: Induced penile erections after pre-administration of MC4-R antagonist SHU9119; type: in vivo, rat; settings: SHU9119 approximately 5 minutes before peptide
# Description: It is known that MC4-R antagonists inhibit the erectile activity of MC4-R agonists in a dose dependent manner. Such antagonists include SHU9119, a nonselective melanocortin antagonist of the formula Ac-Nle-cyc/o(-Asp-His-D-Nal(2′)-Arg-Trp-Lys)-NH2 (Hruby V. J., Lu D., Sharma S. D., et al. Cyclic lactam alpha-melanotropin analogues of Ac-Nle^4-cyclo[Asp^5, D-Phe^7, Lys^10]-NH2 with bulky aromatic amino acids at position 7 show high antagonist potency and selectivity at specific melanocortin receptors. J Med Chem 38:3454-3461 (1995)). Antagonists such as SHU9119 are known to inhibit MT-II and other known melanocortin receptor-specific agonists that induce erectile activity. SHU9119 was administered to male rats approximately 5 minutes before administration of either NH2—(CH2)6CO-Ser(Bzl)-D-Phe(4-Cl)-Arg or NH2—(CH2)6CO-Ser(Bzl)-D-Phe(4-Cl)-Arg-Trp-NH2, with Ac-Nle-cyc/o(Asp-His-D-Phe-Arg-Trp-Lys)-OH, a known MC4-R agonist, as a positive control.
# [1] = biological target: T2, MC1-R (B16-F1 mouse melanoma cells) (Mus musculus, UniProt Q01727); assay: Competitive inhibition binding assay with 125I-NDP-MSH, MC1 receptor; settings: 10 μM peptide, 0 assigned when raw inhibition between −10% and 10%, read-out: % Inhibition at 10 μM concentration at MC1-Receptor
# T2 construct: B-16 mouse melanoma cells (containing MC1-R); endogenous in cells; host or cells: B16-F1 mouse melanoma cells (membranes)
# T2 sequence (Q01727 whole entry): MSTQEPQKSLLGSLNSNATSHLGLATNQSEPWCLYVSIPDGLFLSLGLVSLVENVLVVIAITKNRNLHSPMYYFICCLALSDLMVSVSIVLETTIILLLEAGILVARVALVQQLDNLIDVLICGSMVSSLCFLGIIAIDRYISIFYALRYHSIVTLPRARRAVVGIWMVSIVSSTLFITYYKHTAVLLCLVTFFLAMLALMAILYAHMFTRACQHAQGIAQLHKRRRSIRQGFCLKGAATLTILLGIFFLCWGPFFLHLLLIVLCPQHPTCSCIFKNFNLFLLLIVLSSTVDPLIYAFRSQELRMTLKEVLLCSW
# Experimental: as §1, §2
# [2] = system: panel of known central and peripheral receptors and neurotransmitters, ion channels and enzymes systems; assay: Receptor specificity screening panel; type: binding; settings: 10 μM concentration
# Experimental: The peptide NH2—(CH2)6CO-Ser(Bzl)-D-Phe(4-Cl)-Arg was tested at 10 μM concentration for binding to a panel of known central and peripheral receptors and neurotransmitters, including steroid receptors, neurotransmitter receptors, brain/gut peptide receptors, growth factor/hormone receptors and other receptors, and for interaction with a panel of known ion channels and enzymes systems.
# hMC5-R = biological target: T3, hMC5-R (Homo sapiens, UniProt P33032); assay: Competitive inhibition binding assay with 125I-NDP-MSH, MC5 receptor; settings: 10 μM peptide, 0 assigned when raw inhibition between −10% and 10%, read-out: % Inhibition at 10 μM concentration at MC5-Receptor
# T3 construct: expressed in transfected cells; host or cells: HEK 293 cells (membranes)
# T3 sequence (P33032 whole entry): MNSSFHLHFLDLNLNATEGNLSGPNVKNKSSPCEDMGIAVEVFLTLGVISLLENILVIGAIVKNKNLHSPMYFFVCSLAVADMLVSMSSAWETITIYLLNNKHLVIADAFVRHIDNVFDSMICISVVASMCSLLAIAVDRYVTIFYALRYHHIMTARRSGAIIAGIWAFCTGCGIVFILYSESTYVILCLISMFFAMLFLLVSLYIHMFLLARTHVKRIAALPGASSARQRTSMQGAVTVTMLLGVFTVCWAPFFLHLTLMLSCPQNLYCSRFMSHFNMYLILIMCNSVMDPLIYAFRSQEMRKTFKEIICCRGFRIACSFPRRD
# Experimental: as §1, §2
# male Sprague-Dawley rats = assay: Induction of penile erections in male rats; type: in vivo, rat
# Experimental: The ability of the peptides of Examples 1 to 13 to induce penile erection in male rats was evaluated. Male Sprague-Dawley rats weighing 200-250 g were kept on a 12 hour on/off light cycle with food and water ad libitum. All behavioral studies were performed between 10 a.m. and 5 p.m. Groups of 4-8 rats were treated with peptides at a variety of doses via intravenous administration. Immediately after administration, rats were placed into individual polystyrene cages (27 cm long, 16 cm wide, and 25 cm high) for behavioral observation.
# The efficacious dose of NH2—(CH2)6CO-Ser(Bzl)-D-Phe(4-Cl)-Arg, made as in Example 1 above, to induce penile erection in Sprague Dawley rats by intravenous dosing and oral administration was determined. […] NH2—(CH2)6CO-Ser(Bzl)-D-Phe(4-Cl)-Arg was efficacious at doses as low as 0.1 to 1 μg/kg of body weight when administered by oral means, and at doses lower than 0.001 μg/kg of body weight when administered by intravenous means.
# The efficacious dose of NH2—(CH2)6—CO-Ser(Bzl)-D-Phe(4-Cl)-Arg(NO2), made as in Example 5 above, to induce penile erection in Sprague Dawley rats by intravenous dosing was determined. […] It was determined that NH2—(CH2)6—CO-Ser(Bzl)-D-Phe(4-Cl)-Arg(NO2) was efficacious at doses as low as 0.001 to 10 μg/kg of body weight when administered by intravenous means, with efficacy determined by induction of penile erection in 100% of animals. The optimal dose response was at 1 μg/kg of body weight. FIG. 1 depicts the dose response profile, with the error bars depicting standard deviation where n (the number of animals) is between 8 and 19, depending on the dose point.
# The efficacious dose of NH2—(CH2)6—CO-Ser(Bzl)-D-Phe(4-Cl)-Arg(NO2), made as in Example 5 above, to induce penile erection in Sprague Dawley rats by intranasal administration using a micropipetor to deliver 25 μL of solution into one nostril was determined. […] It was determined that NH2—(CH2)6—CO-Ser(Bzl)-D-Phe(4-Cl)-Arg(NO2) was efficacious at doses between 0.01 μg/kg and 100 μg/kg of body weight when administered by intranasal means. The peak dose response was at an intranasal dose of 0.1 μg/kg of body weight.
# hMC3-R = biological target: T4, hMC3-R (Homo sapiens, UniProt P41968); assay: Competitive inhibition binding assay with 125I-NDP-MSH, MC3 receptor; settings: 10 μM peptide, 0 assigned when raw inhibition between −10% and 10%, read-out: % Inhibition at 10 μM concentration at MC3-Receptor
# T4 construct: expressed in transfected cells; host or cells: HEK 293 cells (membranes)
# T4 sequence (P41968 whole entry): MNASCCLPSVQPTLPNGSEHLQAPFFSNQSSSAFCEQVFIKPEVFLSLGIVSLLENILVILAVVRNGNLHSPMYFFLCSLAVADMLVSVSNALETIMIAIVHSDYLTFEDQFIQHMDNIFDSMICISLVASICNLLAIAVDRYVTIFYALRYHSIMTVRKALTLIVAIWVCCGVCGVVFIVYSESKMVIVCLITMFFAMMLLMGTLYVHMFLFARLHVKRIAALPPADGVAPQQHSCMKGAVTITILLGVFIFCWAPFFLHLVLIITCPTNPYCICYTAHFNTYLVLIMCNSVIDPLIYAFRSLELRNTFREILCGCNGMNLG
# Experimental: as §1, §2
smiles,measurement,setting,value
"N=C(N)NCCC[C@H](NC(=O)[C@@H](Cc1ccc(Cl)cc1)NC(=O)[C@H](COCc1ccccc1)NC(=O)CCCCCCN)C(=O)O [NH2—(CH2)6—CO-Ser(Bzl)-D-Phe(4-Cl)-Arg, NH2—(CH2)6CO-Ser(Bzl)-D-Phe(4-Cl)-Arg] (H-[Ahp]S(Bn)[dPhe(4-Cl)]R-OH)",inhibition at 10 µM,hMC4-R,0%
same,effect of SHU9119 pre-administration on induced erections,male rats,resulted in erections at a rate equivalent to that obtained without pre-administration of SHU9119
same,inhibition at 10 µM,[1],0%
same,binding or activity at panel members,[2],No binding or activity
same,inhibition at 10 µM,hMC5-R,0%
same,"human dose for oral delivery, extrapolated (could be as low as)","male Sprague-Dawley rats; extrapolated from rat to human, oral",1 mg
same,"efficacious dose to induce penile erection, intravenous","male Sprague-Dawley rats; male Sprague Dawley rats, intravenous",lower than 0.001 μg/kg
same,oral dose at which peptide may be biologically active (as low as),"male Sprague-Dawley rats; male rats, oral",250 ng/kg
same,inhibition at 10 µM,hMC3-R,0%
